Test results reported in the METLIN SMRT retention time set (Domingo-Almenara et al. 2019).

assay: gradient 5% acetonitrile 3 min, to 50% in 2 min, to 85% in 15 min, held 3 min, 100 µL/min; conditions: column: Zorbax Extend-C18 2.1 x 50 mm; eluents: water / acetonitrile, 0.1% formic acid
Outline: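 Standards, all pure, were combined into mixtures of ~100 molecules and run at 100 μL/min on a Zorbax Extend-C18 column (2.1 × 50 mm, 1.8 μm) with water and acetonitrile, each containing 0.1% formic acid. A coupled quadrupole time-of-flight mass spectrometer operated in positive and negative ionization mode. Retention time values come from computationally picked adduct peaks, each inspected manually.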

RP-LC retention time [s]	Structure (SMILES)
1060	CC1CCN(c2nn(CC(=O)Nc3ccc4c(c3)OCCO4)c(=O)c3ccccc23)CC1
634	COc1cc2ncc(S(=O)(=O)c3ccc(Cl)cc3)c(N3CCN(C)CC3)c2cc1OC
869	COC(=O)C1=CN(c2cccc(F)c2)c2cc(F)ccc2S1(=O)=O
1010	Cc1ccccc1CN1N=C(C(=O)N2CCCCC2)S(=O)(=O)c2ccccc21
574	CC(NC(=O)c1ccccc1F)C(=O)N1CCN(c2ccccn2)CC1 (stereo unspecified)
1070	CC(C)N1C(=O)C(C)(C(=O)Nc2cccc(Cl)c2)Oc2cccnc21 (stereo unspecified)
747	O=C(NCCc1csc(-c2ccccc2)n1)[C@H]1CCCN1C(=O)c1ccco1
1180	CCOc1ccc(-c2cc3c(=O)n(Cc4nc(-c5ccccc5OCC)no4)ncn3n2)cc1
964	O=C(Nc1cccc(Cl)c1F)c1cnc(-c2ccccc2)nc1-c1ccncc1
740	O=C(NCCc1nc(-c2ccccc2)cs1)C1CC(=O)N(c2n[nH]c3ccccc23)C1 (stereo unspecified)
951	CC(=O)c1cccc(NC(=O)Cn2cccc2-c2nc(-c3ccc4c(c3)OCO4)no2)c1
905	COc1ccc(-c2ccnc3nc(CC(C)C)nn23)cc1
895	CNC(=O)N1CCCC(c2cccc(C(=O)N3CCN(c4cccc(Cl)c4)CC3)c2)C1 (stereo unspecified)
646	CCN(CCNC(=O)c1cc(=O)n(C)c2c1c(=O)n(C)c(=O)n2C)Cc1ccccc1
779	COc1ccccc1NC(=O)C1CCN(S(=O)(=O)c2cc(C(=O)N3CCOCC3)cs2)CC1
831	O=C(NCC(=O)N1CCCc2ccccc21)c1ccccc1F
906	Cc1ccc(-c2nc(C)c(C(=O)N3CCCC3)s2)cc1
1010	CCOC(=O)c1sc(NC(=O)c2cc(=O)c3ccccc3o2)nc1-c1ccccc1
675	CC(=O)Nc1ccc(NC(=O)C2CC(=O)N(CCc3c[nH]c4ccc(F)cc34)C2)cc1 (stereo unspecified)
753	O=C(CCc1c(-c2ccc(Br)cc2)nc2ccccn12)NCCC1=CCCCC1
668	Cc1cc2cc(CNC(=O)NC3CC(=O)N(c4ccccc4)C3)ccc2[nH]1 (stereo unspecified)
629	CCOC(=O)CCNC(=O)NCC1CC(=O)N(c2ccc(F)cc2)C1 (stereo unspecified)

RP-LC retention time [s]	Structure (SMILES)
588	COCCC1(NS(C)(=O)=O)CCN(C(=O)NC(C)C)CC1
724	CCCNC(=O)c1nnc(-c2ccc(S(=O)(=O)N3CCOCC3)cc2)o1
1040	COc1ccc(C)cc1NC(=O)Cn1nc(N2CCSCC2)c2ccccc2c1=O
885	O=C(CN1C(=O)CCCc2cc(S(=O)(=O)N3CCCC3)ccc21)NCc1ccccc1
636	Cc1ncc(-c2ccnc(Nc3ccc(S(C)(=O)=O)cc3)n2)n1C(C)C
1110	CCCn1cc(C(=O)NCCCOCC)c(S(=O)(=O)N2CCN(c3cccc(Cl)c3)CC2)n1
862	Cc1ccc(N2CC(c3nc(-c4cccnc4)no3)CC2=O)cc1Cl (stereo unspecified)
1000	O=S(=O)(c1cc(-c2nnc(C3CCCC3)o2)co1)N1CCCCC1
626	CCc1nccn1Cc1noc(-c2ccc(OC)cc2)n1
674	O=C(NCCn1ncccc1=O)Nc1ccc(OC(F)(F)F)cc1
676	CCn1nc(C)c(CCNC(=O)c2ccc(-c3ccc4c(c3)CCN4C(C)=O)cc2)c1C
750	Nc1cc(C2CCN(C(=O)Nc3ccc(F)c(Cl)c3)CC2)no1
915	Cc1nn(-c2ccccc2)c2c1N(CC(=O)N1CCN(c3ccc(F)cc3)CC1)C(=O)CS2
634	CN1C(=O)c2cccn2CC1C(=O)NC1CCCC1 (stereo unspecified)
773	CCOC(=O)C12CC1/C(=N\O)c1ccccc1O2 (stereo unspecified)
789	CSc1cccc(NC(=O)N2CCC(CC(=O)N3CCCCC3)CC2)c1
1090	CCc1nc2cc(-c3noc(/C=C/c4ccco4)n3)ccc2o1
1110	Cc1sc(-c2cc(C(F)(F)F)on2)cc1S(=O)(=O)Nc1ccccc1F
584	CN(C)CC1CCC2=C(C1=O)C(c1ccc(Cl)c(Cl)c1)C1=C(CCC(CN(C)C)C1=O)O2 (stereo unspecified)
849	CCn1ncn2cc(S(=O)(=O)Nc3cccc(C)c3)cc2c1=O
648	CCSCCOC(=O)C1=C(C)NC2=C(C(=O)CC(C)(C)C2)C1c1ccccn1 (stereo unspecified)
908	CCn1cc2c3c(cccc31)CN(C(=O)Nc1ccc3c(c1)OCCO3)CC2

RP-LC retention time [s]	Structure (SMILES)
566	CC1CCN(c2cc(-c3noc(C(=O)NCCN(C)C)n3)ccn2)CC1
1020	Cc1nc2cc(-c3noc(CNC(=O)Cc4ccc(Cl)cc4)n3)ccc2n(C2CCCC2)c1=O
894	Cc1ccc2c(=O)c(C(=O)Nc3ccc(C)c(C)c3)c[nH]c2n1
1130	CCOc1ccccc1-c1noc(CN2C(=O)C(C)Oc3ccccc32)n1 (stereo unspecified)
1050	Cc1ccc(Cl)c(Nc2ccccc2C(=O)O)c1Cl
1080	FC(F)(F)c1cccc(-c2noc(Cc3nnc(-c4ccccc4)o3)n2)c1
593	CC(C)N1CCC2(CC1)N=C(c1ccc3c(c1)OCO3)CC(c1ccccc1O)N2 (stereo unspecified)
565	Cc1ccn2cc(C(=O)NCCN3CCc4ccccc4C3)nc2c1
678	CCc1ccc(NC(=O)Cn2nc3nc(N4CCCC4)ccn3c2=O)cc1
761	CNC(=O)c1c(C)nn(-c2ccccc2)c1-n1cccc1
653	COc1cccc(NC(=O)N2CCCC(Cn3cnc4cccnc43)C2)c1 (stereo unspecified)
747	COc1cccc(CNC2=NCCNC23CCN(S(=O)(=O)c2ccc(C)cc2C)CC3)c1
1140	CC(=O)c1ccc2c(c1)[C@@H]1C=CC[C@@H]1[C@H](c1cc3c(cc1Br)OCO3)N2
754	COc1cc(NC(=O)C2CCN(C(=O)C3Sc4ccccc4NC3=O)CC2)cc(OC)c1 (stereo unspecified)
1120	Cc1ccc(-c2nc(-c3ccc4c(c3)oc(=O)n4C)no2)cc1
756	COc1cccc(CCC(=O)Nc2cc(-c3cccnc3)no2)c1
1190	COc1cc(C(C)=O)ccc1OC(=O)c1cc2c(C)nn(-c3ccccc3)c2s1
885	Cc1cc(OCC(=O)NCc2cccs2)nc(-c2ccc(F)cc2)n1
762	CCOC(=O)c1c(C)[nH]c(C(=O)N2CCC(CC(=O)NCc3ccccc3)CC2)c1C
578	CN(C)CCn1cc(C(=O)NCc2cccs2)ccc1=O

Structure (SMILES)	RP-LC retention time [s]
CCN1CCN(C(=O)Cc2ccc(Nc3ncc(F)c(Nc4ccc(C(=O)Nc5ccccc5Cl)cc4)n3)cc2)CC1	684
CCCN(CCC)[C@@H]1CCc2cccc(O)c2C1	691
